Test results taken from US6331555A, “Treatment of platelet derived growth factor related disorders such as cancers” (priority 1999, dated 2001).
Like-named read-outs stand apart in the source and are kept apart here.

Experiments:
U87MG cells = assay: Intracerebral U87MG tumor, athymic mice, survival; assay type: in vivo, human; settings: IC U87MG; control 60 days; P=0.15
Colo 320DM = assay: Tumor cell line growth; assay type: cell-based; settings: Homo sapiens, 96 h, colon, 4 days
Protocol: (§1) The assay measures protein content of acid-fixed cells using the counterion binding dye sulforhodamine B (SRB, Sigma). […] For other cell lines, the cells (2000 cells/well in 100 μL) were introduced into wells immediately after dispensing the drug solutions. After 4 days (37° C., 5% CO2) the monolayers were washed 3 times with PBS and fixed with 200 μL ice-cold 10% TCA (Fisher Scientific), and kept at 4° C. for 60 min. The TCA was removed and the fixed monolayers were washed 5 times with tap water and allowed to dry completely at room temperature on absorbent paper. The cellular protein was stained for 10 min with 100 μL 0.4% SRB dissolved in 1% acetic acid. After 5 washes with tap water, the dye was solubilized in 10 mM Tris base (100 μL per well) and absorbance read at 570 nm on a Dynatech plate reader model MR5000. Growth inhibition data are expressed as a percentage of absorbance detected in control wells which were treated with 0.4% DMSO alone. DMSO controls were not different from cells grown in regular growth medium. IC50 values were determined using a four parameter curve fit function.
(§2) For K562, DlB, L1210, 7TDl, T27A, and Colo320 DM cells, an MTT assay was used to assess cell growth. […] The cells were incubated at 37° C. for 4 days in a humidified 7% CO2 atmosphere. At the end point, […] of MTT (5 mg/mL in PBS, Sigma) was added to each well. The plates were incubated at 37° C. for 4 hr followed by addition of […] of solubilization solution (20% w/v of SDS in 50% N, N-dimethylformamide, pH 4.7) to each well. The plates were incubated overnight in a sealed container with a humidified atmosphere. The absorbance was determined at 570 nm wavelength with a reference wavelength of 630 nm using an ELISA plate reader.

PC3 = assay: Tumor cell line growth; assay type: cell-based; settings: Homo sapiens, PC-3, 96 h; prostate, 4 days
Protocol: as §1, §2

SKOV3 = assay: Tumor cell line growth; assay type: cell-based; settings: Homo sapiens
Protocol: as §1, §2

U1242 = assay: Tumor cell line growth; assay type: cell-based; settings: 96 h; glioma, 4 days
Protocol: as §1, §2

MDA MB 361 = assay: Tumor cell line growth; assay type: cell-based; settings: Homo sapiens, MDA-MB-361, 96 h; breast, 4 days
Protocol: as §1, §2

MCF7 = assay: Tumor cell line growth; assay type: cell-based; settings: Homo sapiens, MCF7, 96 h; breast, 4 days
Protocol: as §1, §2

U87MG = assay: Tumor cell line growth; assay type: cell-based; settings: Homo sapiens, U-87 MG, 96 h; glioma, 4 days
Protocol: as §1, §2

U118MG = assay: Tumor cell line growth; assay type: cell-based; settings: Homo sapiens, U-118-MG, 96 h; glioma, 4 days
Protocol: as §1, §2

SF767 = assay: Tumor cell line growth; assay type: cell-based
Protocol: as §1, §2

T98G = assay: Tumor cell line growth; assay type: cell-based; settings: Homo sapiens, 96 h, glioma, 4 days
Protocol: as §1, §2

PA-1 = assay: Tumor cell line growth; assay type: cell-based; settings: Homo sapiens, PA-1, 96 h; ovarian, 4 days
Protocol: as §1, §2

BT549 = assay: Tumor cell line growth; assay type: cell-based; settings: Homo sapiens, BT-549, 96 h; breast, 4 days
Protocol: as §1, §2

A431 = assay: Tumor cell line growth; assay type: cell-based; settings: Homo sapiens, A-431, 96 h; epidermoid, 4 days
Protocol: as §1, §2

MCF7/HER2 = assay: Tumor cell line growth; assay type: cell-based; settings: Homo sapiens, MCF7, 96 h; breast, 4 days
Protocol: as §1, §2

SF763 = assay: Tumor cell line growth; assay type: cell-based
Protocol: as §1, §2

ZR75-30 = assay: Tumor cell line growth; assay type: cell-based; settings: Homo sapiens, ZR-75-30, 96 h; breast, 4 days
Protocol: as §1, §2

U373MG = assay: Tumor cell line growth; assay type: cell-based; settings: Homo sapiens, U373 MG, 96 h; glioma, 4 days
Protocol: as §1, §2

U138MG = assay: Tumor cell line growth; assay type: cell-based; settings: Homo sapiens, U138-MG, 96 h; glioma, 4 days
Protocol: as §1, §2

[1] = assay type: in vivo, mouse; settings: IP A10 40 mg/kg single dose
Protocol: Plasma was prepared and frozen in liquid nitrogen. Tissues and organs were resected and immediately frozen in liquid nitrogen. After the addition of an internal standard, plasma samples were acidified with HCl and extracted with acetonitrile. The acetonitrile fraction was evaporated to dryness in a vacuum centrifuge with heating and redissolved in methanol. Tissue and organ samples were homogenized according to the weight ratio of 1:5 (w:v) in 50 mM Tris-HCl, pH 7.4, at 20,000 rev/min, using a tissue homogenizer (Brinkmann Polytron Model PT3000). After the addition of an internal standard, the homogenate was acidified with HCl and then extracted with acetonitrile. The acetonitrile fraction was then extracted with an equal volume of diethyl ether. The ether fraction was evaporated to dryness in a vacuum centrifuge with heating and redissolved in methanol.
Samples for HPLC analysis were injected onto a Hewlett Packard Hypersil 5-μm C18 cartridge column (100×4.6 mm). […] The compounds were monitored by UV absorption at 254 nm using a Hewlett-Packard diode-array detector (HP Model 1090). Plasma and tissue concentrations were determined from standard curves using peak area for quantitation. […]
Table XXII. […] Plasma and brain samples were prepared and analyzed by HPLC as described in Appendix 6. All results were calculated by the method of internal standardization. NT= not tested, ND= not detected.

Molecule `Cc1oncc1C(=O)Nc1ccc(C(F)(F)F)cc1` [Compound A10, 5-methylisoxazole-4 carboxylic acid-(4-trifluromethyl)-anilide] has a mean survival (U87MG cells) of 65 days, an IC50 (Colo 320DM) of 34 µM and an IC50 (PC3) of 46 µM. For the same molecule, the IC50 (SKOV3; SK-OV-3, 96 h, ovarian, 4 days, read-out: IC50) was > 100 µM, the IC50 (SKOV3; SK-OV-3, PDGF-R expression -, read-out: SRB) was > 100 µM and the IC50 (U1242) was 19 µM. For the same molecule, the IC50 (MDA MB 361) was 200 µM, the IC50 (MCF7) was 288 µM and the IC50 (U87MG) was 78 µM. The IC50 (U118MG) was 150 µM, the IC50 (SF767; SF767, 96 h, glioma, 4 days, read-out: IC50) was 87 µM and the IC50 (SF767; SF767, PDGF-R expression -, read-out: SRB) was 100 µM. For the same molecule, the IC50 (T98G) was 62 µM, the IC50 (PA-1) was 40 µM and the IC50 (BT549) was > 400 µM. For the same molecule, the IC50 (A431) was 34 µM, the IC50 (MCF7/HER2) was 116 µM and the IC50 (SF763; SF763, 96 h, glioma, 4 days, read-out: IC50) was 110 µM. The IC50 (SF763; SF763, PDGF-R expression -, read-out: SRB) was > 100 µM, the IC50 (ZR75-30) was 300 µM and the IC50 (U373MG) was 115 µM. The IC50 (U138MG) was > 400 µM and the “time by which A10 completely converted and undetectable” value [1] was ≤ 1 h.
